Measurements taken from patent publication US9980927B2, “Use of tapentadol for inhibiting and/or treating depression and anxiety” (Gruenenthal GmbH, priority 2011, dated 2018).

System: patients with inadequately managed, severe chronic low back pain with or without a neuropathic pain component
Experiment: Hospital Anxiety and Depression Scale (HADS) anxiety score; open-label phase IIIb trial, tapentadol prolonged release 50-250 mg bid for up to 12 weeks
Assay type: in vivo, human patients
Method: As used herein, the “anxiety score” is a value determining the degree of the […]. The scale of anxiety scores covers the range from 0 to 21, wherein the degree of the anxiety is high in case of high values and low in case of low values. In a group of tested subjects, typically the mean or mediate values of anxiety scores are determined and referred to. The mean value is the sum of all anxiety scores divided by the number of subjects. The mediate value is the middle anxiety score in the set of determined scores. Preferably, the “anxiety score” is defined as in the experimental section.
A subgroup suffering from neuropathic pain due to lumbar radiculopathy was also investigated.
This was a multicenter, multinational, open-label, effectiveness phase IIIb trial to evaluate effectiveness and safety of tapentadol prolonged release treatment in patients with inadequately managed, severe chronic low back pain with or without a neuropathic pain component. Patients taking WHO Step II analgesics discontinued those analgesics before starting study medication; patients taking Step I analgesics and/or centrally acting co-analgesics continued on the same dose. […] All patients received tapentadol prolonged release (50-250 mg bid) for up to 12 weeks (5-week titration period and a 7-week maintenance period). Tapentadol immediate release (IR) 50 mg (twice a day, hours apart) was permitted (combined total daily dose of tapentadol prolonged release and tapentadol IR, 500 mg/day). The primary efficacy endpoint was the change from Baseline to Week 6 (when tapentadol prolonged release doses were stable) in average pain intensity on the 11-point NRS-3 using the last observation carried forward (LOCF) for imputing missing scores. The painDETECT questionnaire was used to evaluate the likelihood of a neuropathic pain component of low back pain; patients were classified as painDETECT “negative,” “unclear,” or “positive.” The population of patients classified as painDETECT negative was limited to approximately 30% of the total population.
In the painDETECT positive trial population the “diagnosis of lumbar radiculopathy” was evaluated which was defined per study protocol according following criteria: • typical dermatomal pain (radiating beyond the knee towards the foot, pain evoked by stretching within distribution of the ischiadic/femoral nerve) • signs of root dysfunction: • such as sensory impairment, motor symptoms from compression of lumbar nerve root (L4, L5, S1). • and/or absent or diminished quadriceps femoris or triceps surae reflexes. • and/or quantitative sensory testing (QST) deficit and pain distribution present in the same dermatomal area.
All subjects completed Short Form-36 (SF-36) and EuroQol-5 Dimension (EQ-5D) questionnaires and the Hospital Anxiety and Depression Scale (HADS). The Patient Global Impression of Change (PGIC) and Clinical global impression of change (CGIC) were also used as secondary endpoints. For both tests, patients completed the statement, “since I began trial treatment, I would rate my overall condition as,” using 7 possible responses (“very much worse” to “very much improved”). Adverse events were recorded throughout the trial.
In the following • (i) N is the number of subjects of the specified diagnosis group, • (ii) n is the number of subjects with data available, • (iii) “Mean” is the mean score of the subjects, i.e. the sum of all scores is divided by the number of subjects, • (iv) SD is the standard deviation, • (v) “Median” is the median score of the subjects, i.e. the middle score in the set of scores, • (vi) “Range” is the range of scores of the subjects, i.e. the range defined by the lowest and the highest score of the set of scores. First, the depression scores are presented. The total number of subjects in the clinical study: N=175

[1] = Visit 8, presumed neuropathic pain component N=41
[2] = Visit 8, presumed or defined neuropathic
[3] = Visit 8, presumed or defined neuropathic pain component N=126
[4] = Visit 8, subjects with nociceptive pain N=49
[5] = Visit 9, defined neuropathic pain N=85
[6] = Visit 9, positive diagnosis of lumbar radiculopathy-neuropathic pain subset N=44
[7] = Visit 9, presumed neuropathic pain component N=41
[8] = Visit 9, presumed or defined neuropathic pain component N=126
[9] = Visit 9, subjects with nociceptive pain N=49
[10] = Visit 10, defined neuropathic pain N=85
[11] = Visit 10, positive diagnosis of lumbar radiculopathy-neuropathic pain subset N=44
[12] = Visit 10, presumed neuropathic pain component N=41
[13] = Visit 10, presumed or defined neuropathic pain component N=126
[14] = Visit 10, subjects with nociceptive pain N=49
[15] = Visit 11, defined neuropathic pain N=85
[16] = Visit 11, positive diagnosis of lumbar radiculopathy-neuropathic pain subset N=44
[17] = Visit 11, presumed neuropathic pain component N=41
[18] = Visit 11, presumed or defined neuropathic pain component N=126
[19] = Visit 11, subjects with nociceptive pain N=49
[20] = Visit 12, defined neuropathic pain N=85
[21] = Visit 12, positive diagnosis of lumbar radiculopathy-neuropathic pain subset N=44
[22] = Visit 12, presumed neuropathic pain component N=41
[23] = Visit 12, presumed or defined neuropathic
[24] = Visit 12, presumed or defined neuropathic pain component N=126
[25] = Visit 12, subjects with nociceptive pain N=49

Question: How did the “Anxiety score Median” value (Visit 8, positive diagnosis of lumbar radiculopathy-neuropathic pain subset N=44) turn out when `CC[C@@H](c1cccc(O)c1)[C@@H](C)CN(C)C` [tapentadol, (−)-(1R,2R)-3-(3-dimethylamino-1-ethyl-2-methyl-propyl)-phenol] was run?
Answer: 5.0

Question: And the “Anxiety score Mean (SD)” value [1]?
Answer: 4.9 (4.04)

Question: And the “Anxiety score Median” value [1]?
Answer: 4.0

Question: And the “Anxiety score change from baseline Mean (SD)” value (from here on “Anxiety score change … (SD)”) [2]?
Answer: −2.4 (3.57)

Question: And the “Anxiety score change from baseline Median” value [2]?
Answer: −2.0

Question: And the “Anxiety score Mean (SD)” value [3]?
Answer: 5.7 (3.80)

Question: What about the “Anxiety score Median” value [3] of the same compound?
Answer: 5.0

Question: What about the “Anxiety score Mean (SD)” value [4] of the same compound?
Answer: 5.4 (4.40)

Question: What about the “Anxiety score Median” value [4] of the same compound?
Answer: 4.0

Question: And the “Anxiety score change … (SD)” value (Visit 8, total)?
Answer: −1.9 (3.72)

Question: What about the “Anxiety score change from baseline Median” value (Visit 8, total) of the same compound?
Answer: −2.0

Question: What about the “Anxiety score Mean (SD)” value (Visit 8, total subjects N=175) of the same compound?
Answer: 5.6 (3.95)

Question: What about the “Anxiety score Median” value (Visit 8, total subjects N=175) of the same compound?
Answer: 5.0

Question: And the “Anxiety score Mean (SD)” value [5]?
Answer: 6.1 (3.99)

Question: What about the “Anxiety score Median” value [5] of the same compound?
Answer: 5.0

Question: What about the “Anxiety score Mean (SD)” value [6] of the same compound?
Answer: 6.2 (4.01)

Question: What about the “Anxiety score Median” value [6] of the same compound?
Answer: 5.0

Question: And the “Anxiety score Mean (SD)” value [7]?
Answer: 6.1 (5.10)

Question: And the “Anxiety score Median” value [7]?
Answer: 6.0

Question: And the “Anxiety score Mean (SD)” value [8]?
Answer: 6.1 (4.32)

Question: What about the “Anxiety score Median” value [8] of the same compound?
Answer: 5.0

Question: And the “Anxiety score Mean (SD)” value [9]?
Answer: 4.6 (3.34)

Question: What about the “Anxiety score Median” value [9] of the same compound?
Answer: 4.0

Question: What about the “Anxiety score Mean (SD)” value (Visit 9, total subjects N=175) of the same compound?
Answer: 5.7 (4.10)

Question: What about the “Anxiety score Median” value (Visit 9, total subjects N=175) of the same compound?
Answer: 4.0

Question: What about the “Anxiety score Mean (SD)” value [10] of the same compound?
Answer: 6.1 (3.98)

Question: What about the “Anxiety score Median” value [10] of the same compound?
Answer: 6.0

Question: And the “Anxiety score Mean (SD)” value [11]?
Answer: 6.1 (3.85)

Question: And the “Anxiety score Median” value [11]?
Answer: 6.0

Question: And the “Anxiety score Mean (SD)” value [12]?
Answer: 5.5 (5.46)

Question: What about the “Anxiety score Median” value [12] of the same compound?
Answer: 4.0

Question: What about the “Anxiety score Mean (SD)” value [13] of the same compound?
Answer: 5.9 (4.46)

Question: What about the “Anxiety score Median” value [13] of the same compound?
Answer: 5.0

Question: What about the “Anxiety score Mean (SD)” value [14] of the same compound?
Answer: 4.7 (3.21)

Question: What about the “Anxiety score Median” value [14] of the same compound?
Answer: 4.0

Question: What about the “Anxiety score Mean (SD)” value (Visit 10, total subjects N=175) of the same compound?
Answer: 5.6 (4.16)

Question: What about the “Anxiety score Median” value (Visit 10, total subjects N=175) of the same compound?
Answer: 5.0

Question: And the “Anxiety score Mean (SD)” value [15]?
Answer: 5.9 (3.84)

Question: And the “Anxiety score Median” value [15]?
Answer: 5.5

Question: And the “Anxiety score Mean (SD)” value [16]?
Answer: 6.3 (4.25)

Question: What about the “Anxiety score Median” value [16] of the same compound?
Answer: 6.5

Question: And the “Anxiety score Mean (SD)” value [17]?
Answer: 5.1 (4.25)

Question: And the “Anxiety score Median” value [17]?
Answer: 4.0

Question: And the “Anxiety score Mean (SD)” value [18]?
Answer: 5.6 (3.96)

Question: What about the “Anxiety score Median” value [18] of the same compound?
Answer: 5.0

Question: What about the “Anxiety score Mean (SD)” value [19] of the same compound?
Answer: 4.8 (3.77)

Question: And the “Anxiety score Median” value [19]?
Answer: 4.0

Question: And the “Anxiety score Mean (SD)” value (Visit 11, total subjects N=175)?
Answer: 5.4 (3.91)

Question: And the “Anxiety score Median” value (Visit 11, total subjects N=175)?
Answer: 5.0

Question: And the “Anxiety score change … (SD)” value (Visit 12)?
Answer: −3.1 (3.16)

Question: And the “Anxiety score change from baseline Median” value (Visit 12)?
Answer: −3.0

Question: And the “Anxiety score change … (SD)” value (Visit 12, defined neuropathic)?
Answer: −2.3 (4.14)

Question: And the “Anxiety score change from baseline Median” value (Visit 12, defined neuropathic)?
Answer: −2.0

Question: And the “Anxiety score Mean (SD)” value [20]?
Answer: 5.7 (3.80)

Question: What about the “Anxiety score Median” value [20] of the same compound?
Answer: 5.0

Question: And the “Anxiety score change … (SD)” value (Visit 12, lumbar radiculopathy)?
Answer: −2.2 (4.11)

Question: And the “Anxiety score change from baseline Median” value (Visit 12, lumbar radiculopathy)?
Answer: −2.0

Question: And the “Anxiety score change … (SD)” value (Visit 12, nociceptive)?
Answer: −0.8 (2.82)

Question: What about the “Anxiety score change from baseline Median” value (Visit 12, nociceptive) of the same compound?
Answer: −1.0

Question: What about the “Anxiety score Mean (SD)” value [21] of the same compound?
Answer: 5.7 (3.59)

Question: And the “Anxiety score Median” value [21]?
Answer: 6.0

Question: And the “Anxiety score Mean (SD)” value [22]?
Answer: 4.8 (3.67)

Question: What about the “Anxiety score Median” value [22] of the same compound?
Answer: 4.0

Question: And the “Anxiety score change … (SD)” value [23]?
Answer: −2.5 (3.85)

Question: And the “Anxiety score change from baseline Median” value [23]?
Answer: −2.0

Question: And the “Anxiety score Mean (SD)” value [24]?
Answer: 5.4 (3.76)

Question: And the “Anxiety score Median” value [24]?
Answer: 5.0

Question: What about the “Anxiety score Mean (SD)” value [25] of the same compound?
Answer: 4.5 (3.65)

Question: What about the “Anxiety score Median” value [25] of the same compound?
Answer: 3.0

Question: What about the “Anxiety score change … (SD)” value (Visit 12, total) of the same compound?
Answer: −2.1 (3.67)

Question: And the “Anxiety score change from baseline Median” value (Visit 12, total)?
Answer: −2.0

Question: What about the “Anxiety score Mean (SD)” value (Visit 12, total subjects N=175) of the same compound?
Answer: 5.2 (3.73)

Question: And the “Anxiety score Median” value (Visit 12, total subjects N=175)?
Answer: 4.0

Question: What about the efficacy against anxiety (conclusion from the clinical data) of the same compound?
Answer: significant efficacy
